Measurements from the Kinase Knowledgebase extract (Sharma et al. 2016).

These compounds were tested against MAPK14 (human) (UniProt Q16539) (assay: Inhibition of MAPK14 Kinase Activity). Settings: not given.
Sequence of MAPK14 (human) (Q16539 whole entry, looked up): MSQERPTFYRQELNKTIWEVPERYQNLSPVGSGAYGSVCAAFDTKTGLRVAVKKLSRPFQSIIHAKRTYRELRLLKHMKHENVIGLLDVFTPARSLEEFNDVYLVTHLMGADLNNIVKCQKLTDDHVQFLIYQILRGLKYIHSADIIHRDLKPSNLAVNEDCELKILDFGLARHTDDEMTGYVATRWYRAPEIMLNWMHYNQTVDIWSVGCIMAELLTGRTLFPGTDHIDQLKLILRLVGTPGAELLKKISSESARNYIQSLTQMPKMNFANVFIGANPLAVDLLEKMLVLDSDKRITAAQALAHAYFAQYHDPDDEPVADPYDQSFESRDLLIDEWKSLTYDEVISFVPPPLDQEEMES

Compound | IC50 [µM]
COc1ccc(CN2CCN(C(=O)c3cc(C(C)(C)C)sc3NC(=O)Nc3cccc(Cl)c3Cl)C(C)(C)C2=O)cc1 | < 5
CC(C)(C)c1cc(C(=O)N2CCNC(=O)C2)c(NC(=O)Nc2cccc3c2OCO3)s1 | < 5
CC(C)(C)c1cc(C(=O)N2CCNC(=O)C2)c(NC(=O)Nc2cccc(Cl)c2Cl)s1 | < 5
CC(C)(C)c1nc(C(=O)N2CCC(=O)N(CCN)CC2)c(NC(=O)Nc2cccc(Cl)c2Cl)s1 | < 5
CC(C)(C)c1cc(C(=O)N2CCNC(=O)C2(C)C)c(NC(=O)Nc2cccnc2Cl)s1 | < 5
CC(C)(C)c1cc(C(=O)N2CCNC(=O)C2(C)C)c(NC(=O)Nc2ccc(F)cc2Cl)s1 | < 5
CC(C)(C)c1cc(C(=O)N2CCNC(=O)C2(C)CC(=O)O)c(NC(=O)Nc2cccc(Cl)c2Cl)s1 (centres undefined) | < 5
CC(C)(C)c1cc(C(=O)N2CCNC(=O)C2(C)CCO)c(NC(=O)Nc2cccc(Cl)c2Cl)s1 (centres undefined) | < 5
CC(C)(C)c1cc(C(=O)N2CCNC(=O)CC2)c(NC(=O)Nc2ccccc2I)s1 | < 5
CN(C)CCNC(=O)CN1CCN(C(=O)c2sc(C(C)(C)C)cc2NC(=O)Nc2ccnc(Cl)c2Cl)C(C)(C)C1=O | < 5
CC(C)(C)c1cc(C(=O)NCC(F)(F)F)c(NC(=O)Nc2cccc(Cl)c2Cl)s1 | < 5
CC1(C)OCC(CN2CCN(C(=O)c3nc(C(C)(C)C)sc3NC(=O)Nc3cccc(Cl)c3Cl)CCC2=O)O1 (centres undefined) | < 5
O=C1CCN(C(=O)c2cc(Cl)c(C(F)(F)F)cc2NC(=O)Nc2cccc(Cl)c2Cl)CCN1 | < 5
CC(C)(C)c1cc(C(=O)N2CCN(C(=O)N3CCOCC3)CC2)c(NC(=O)Nc2cccc(Cl)c2Cl)s1 | < 5
CC(C)(C)c1cc(C(=O)N2CCCN(S(C)(=O)=O)CC2)c(NC(=O)Nc2cccc(Cl)c2Cl)s1 | < 5
C[C@@H]1C(=O)NCCN1C(=O)c1cc(C(C)(C)C)sc1NC(=O)Nc1cccc(Cl)c1Cl | < 5
CC(C)(C)c1cc(C(=O)N2CCS(=O)(=O)CC2)c(NC(=O)Nc2ccc(F)c(Cl)c2Cl)s1 | < 5
CCOC(=O)CN1CCN(C(=O)c2cc(NC(=O)Nc3ccc(F)c(Cl)c3Cl)c(C(C)(C)C)s2)C(C)(CC(=O)OC)C1=O (centres undefined) | < 5
CCC(C)(C)c1cc(NC(=O)Nc2ccc(F)c(Cl)c2Cl)c(C(=O)N2CCNC(=O)C2(C)C)[nH]1 | < 5
COCOCCN1CCN(C(=O)c2cc(C(C)(C)C)sc2NC(=O)Nc2cccc(Cl)c2Cl)C(C)(C)C1=O | < 5
CC(C)(C)c1cc(C(=O)N2CCNC(=O)CC2)c(NC(=O)Nc2ccc(C#N)c(Cl)c2Cl)s1 | < 5
CON(C)C(=O)CN1CCN(C(=O)c2cc(C(C)(C)C)sc2NC(=O)Nc2ccc(F)c(Cl)c2Cl)C(C)(C)C1=O | < 5
CC(C)(C)c1cc(NC(=O)Nc2cccc(Cl)c2Cl)c(C(=O)N2CCS(=O)(=O)CC2)o1 | < 5
CC(C)(C)c1cc(NC(=O)Nc2ccc(F)c(Cl)c2Cl)c(C(=O)N2CCNC(=O)C2(C)C)o1 | < 5
CC(C)(C)c1cc(C(=O)N2CCS(=O)(=O)CC2)c(NC(=O)Cc2cccc(Cl)c2Cl)s1 | < 5

Further lines, results first:

IC50 [µM] | Compound
< 5 | CN(C)CCNC(=O)CN1CCN(C(=O)c2cc(C(C)(C)C)sc2NC(=O)Nc2ccc(F)c(Cl)c2Cl)C(C)(C)C1=O
< 5 | CN(C)CCN1CCN(C(=O)c2cc(C(C)(C)C)sc2NC(=O)Nc2cccnc2Cl)C(C)(C)C1=O
< 5 | CC(C)(C)c1cc(C(=O)N2CCC(=O)N(CCc3nnn[nH]3)CC2)c(NC(=O)Nc2cccc(Cl)c2Cl)s1
< 5 | CC(C)(C)c1cc(C(=O)N2CC(=O)NC(CO)C2)c(NC(=O)Nc2cccc(Cl)c2Cl)s1 (centres undefined)
< 5 | O=C(Nc1cc(C(F)(F)F)c(Cl)cc1C(=O)N1CCS(=O)(=O)CC1)Nc1cccc(Cl)c1Cl
< 5 | COc1ccc(CC(=O)N2CCN(C(=O)c3cc(C(C)(C)C)sc3NC(=O)Nc3cccc(Cl)c3Cl)CC2)cc1
< 5 | COC(=O)CC1(C)C(=O)NCCN1C(=O)c1cc(C(C)(C)C)[nH]c1NC(=O)Nc1cccc(Cl)c1Cl (centres undefined)
< 5 | CC(=O)N1CCN(C(=O)c2cc(C(C)(C)C)sc2NC(=O)Nc2cccc(Cl)c2Cl)CC1
< 5 | CNC(=O)[C@@H]1CCCN1C(=O)c1cc(C(C)(C)C)sc1NC(=O)Nc1ccc(OC(F)F)c(Cl)c1Cl
< 5 | CON(C)C(=O)CN1CCN(C(=O)c2cc(C(C)(C)C)sc2NC(=O)Nc2ccc(F)c(F)c2Cl)C(C)(C)C1=O
< 5 | CC(C)c1ccccc1NC(=O)Nc1sc(C(C)(C)C)cc1C(=O)N1CCNC(=O)CC1
< 5 | CC(C)(C)OC(=O)N1CCN(C(=O)c2cc(C(C)(C)C)sc2NC(=O)Nc2cccc(Cl)c2Cl)CC1
< 5 | CN(C)CCN1CCN(C(=O)c2cc(C(C)(C)C)sc2NC(=O)Nc2ccccc2Cl)CCC1=O
< 5 | COC(=O)N1CCN(C(=O)c2cc(C(C)(C)C)sc2NC(=O)Nc2cccc(Cl)c2Cl)CC1
< 5 | Cc1c(Cl)cccc1NC(=O)Nc1sc(C(C)(C)C)cc1C(=O)N1CCNC(=O)C1(C)CCO (centres undefined)
< 5 | CCCNC(=O)CN1CCN(C(=O)c2cc(C(C)(C)C)sc2NC(=O)Nc2cccc(Cl)c2Cl)C(C)(C)C1=O
< 5 | COC(=O)CN1CCN(C(=O)c2[nH]c(C(C)(C)C)cc2NC(=O)Nc2cccc(Cl)c2Cl)C(C)(C)C1=O
< 5 | CON(C)C(=O)CC1(C)C(=O)NCCN1C(=O)c1cc(C(C)(C)C)sc1NC(=O)Nc1ccc(F)c(Cl)c1Cl (centres undefined)
< 5 | CN(C)CCN1CCN(C(=O)c2cc(C(C)(C)C)sc2NC(=O)Nc2ccccc2C(C)(C)C)C(C)(C)C1=O
< 5 | COc1ccccc1NC(=O)Nc1sc(C(C)(C)C)cc1C(=O)N1CCC(=O)N(CCN(C)C)CC1
< 5 | CN(C)CCN1CCN(C(=O)c2[nH]c(C(C)(C)C)cc2NC(=O)Nc2cccc(Cl)c2Cl)C(C)(C)C1=O
< 5 | CN(C)CCCCCN1CCN(C(=O)c2cc(C(C)(C)C)sc2NC(=O)Nc2cccc(Cl)c2Cl)C(C)(C)C1=O
< 5 | CC(C)(C)c1cc(C(=O)N2CCNC(=O)C2(C)C)c(NC(=O)Nc2ccc(F)c(Cl)c2Cl)s1
< 5 | CC(C)(C)c1cc(C(=O)N2CCNC(=O)C2(C)C)c(NC(=O)Nc2cc(Cl)cc(Cl)c2)s1

IC50 [µM] | Compound
< 5 | CC(C)(C)c1cc(C(=O)N2CCNC(=O)C2(C)C)c(NC(=O)Nc2cccc3c2OCO3)s1
< 5 | CCc1ccccc1NC(=O)Nc1sc(C(C)(C)C)cc1C(=O)N1CCNC(=O)C1(C)C
< 5 | CON(C)C(=O)CN1CCN(C(=O)c2cc(C(C)(C)C)sc2NC(=O)Nc2cccc(Cl)c2Cl)C(C)(C)C1=O
< 5 | COC(=O)c1ccc(NC(=O)Nc2sc(C(C)(C)C)cc2C(=O)N2CCNC(=O)CC2)c(Cl)c1Cl
< 5 | CC(C)(C)c1nc(C(=O)N2CCNC(=O)CC2)c(NC(=O)Nc2cccc(Cl)c2Cl)s1
< 5 | CN(C)CCN1CCN(C(=O)c2nc(C(C)(C)C)sc2NC(=O)Nc2cccc(Cl)c2Cl)CCC1=O
< 5 | COc1cccc(NC(=O)Nc2sc(C(C)(C)C)cc2C(=O)N2CCC(=O)N(CCN(C)C)CC2)c1Cl
< 5 | O=C(Nc1cc(C(=O)N2CCS(=O)(=O)CC2)cc(C(F)(F)F)c1)Nc1cccc(Cl)c1Cl
< 5 | CN(C)CCN1CCN(C(=O)c2cc(C(C)(C)C)sc2NC(=O)Nc2c(Cl)cncc2Cl)CCC1=O
< 5 | CC(C)(C)c1cc(C(=O)N2CCNC(=O)C23CC3)c(NC(=O)Nc2cccc(Cl)c2Cl)s1
< 5 | CN(C)CCN1CCN(C(=O)c2[nH]c(C(C)(C)C)cc2NC(=O)Nc2ccc(F)c(Cl)c2Cl)CCC1=O
< 5 | COc1ccc(Cl)c(NC(=O)Nc2cc(C(C)(C)C)sc2C(=O)N2CCNC(=O)C2(C)C)c1
< 5 | CC(C)(C)c1cc(C(=O)N2CCN(CC(=O)NCC3CC3)C(=O)C2(C)C)c(NC(=O)Nc2cccc(Cl)c2Cl)s1
< 5 | COc1ccc(NC(=O)Nc2sc(C(C)(C)C)cc2C(=O)N2CCNC(=O)CC2)c(Cl)c1Cl
< 5 | CC(C)(C)c1nc(C(=O)N2CCC(=O)N(CCC(N)=O)CC2)c(NC(=O)Nc2cccc(Cl)c2Cl)s1
< 5 | Cc1cccc(NC(=O)Nc2sc(C(C)(C)C)cc2C(=O)N2CCC(=O)N(CCN(C)C)CC2)c1Cl
< 5 | CCC1(C)C(=O)N(CC(=O)N2CCN(C)CC2)CCN1C(=O)c1cc(C(C)(C)C)sc1NC(=O)Nc1cccc(Cl)c1Cl (centres undefined)
< 5 | CC(C)(C)c1cc(NC(=O)Nc2ccc(F)c(F)c2Cl)c(C(=O)N2CCNC(=O)C2(C)CCO)s1 (centres undefined)
< 5 | CCc1ccccc1NC(=O)Nc1sc(C(C)(C)C)cc1C(=O)N1CCN(CCN(C)C)C(=O)C1(C)C
< 5 | CN1CCN(C(=O)c2cc(C(C)(C)C)sc2NC(=O)Nc2cccc(Cl)c2Cl)C(C)(CC(N)=O)C1=O (centres undefined)
< 5 | CC(C)(C)c1cc(C(=O)N2CCNC(=O)CC2)c(NC(=O)Nc2ccccc2OC(F)(F)F)s1
< 5 | CCC1(C)C(=O)N(CC(=O)NCCN2CCCC2)CCN1C(=O)c1cc(C(C)(C)C)sc1NC(=O)Nc1cccc(Cl)c1Cl (centres undefined)
< 5 | CCOC(=O)C1(C)C(=O)NCCN1C(=O)c1cc(C(C)(C)C)sc1NC(=O)Nc1cccc(Cl)c1Cl (centres undefined)

Same assay, conditions: concentration not given here

inhibition [%] | Compound
76 to 100 | CC(C)(C)c1nc(NC(=O)Nc2cccc3ccccc23)c(C(=O)N2CCNC(=O)CC2)s1
0 to 25 | CC(C)(C)c1cc(C(=O)N2CCNC(=O)CC2)c(NC(=O)NC2CCNCC2)s1
51 to 75 | CC(C)(C)c1cc(C(=O)N2CCNC(=O)CC2)c(NC(=O)Nc2ccnc3ccccc23)s1
76 to 100 | Cc1cccc(NC(=O)Nc2sc(C(C)(C)C)cc2C(=O)N2CCNS(=O)(=O)CC2)c1
76 to 100 | CC(C)(C)c1cc(C(=O)N2CCNS(=O)(=O)CC2)c(NC(=O)Nc2ccc3ocnc3c2)s1
26 to 50 | CC(C)(C)c1cc(C(=O)N2CCNS(=O)(=O)CC2)c(NC(=O)Nc2cnc(O)c3ccccc23)s1
76 to 100 | CC(C)(C)c1cc(C(=O)N2CCNC(=O)CC2)c(NC(=O)Nc2ccc3ncoc3c2)s1
76 to 100 | CC(C)(C)c1cc(C(=O)N2CCNC(=O)CC2)c(NC(=O)Nc2cc(Cl)cc(Cl)c2)s1
76 to 100 | CC(C)(C)c1cc(C(=O)N2CCNC(=O)C(N)C2)c(NC(=O)Nc2cccc(Cl)c2Cl)s1 (centres undefined)
76 to 100 | CC(C)(C)c1cc(C(=O)N2CCNC(=O)CC2)c(NC(=O)Nc2ccc(CN)c3ccccc23)s1
76 to 100 | COc1ccc(NC(=O)Nc2sc(C(C)(C)C)cc2C(=O)N2CCNC(=O)CC2)cc1Cl
76 to 100 | CC(C)(C)c1cc(NC(=O)Nc2cccc(Cl)c2Cl)c(C(=O)N2CCNC(=O)CC2)s1
